# Data reported in paper PMC6364417, “Kinase inhibitor library screening identifies synergistic drug combinations effective in sensitive and resistant melanoma cells” (Journal of Experimental & Clinical Cancer Research : CR, 2019).
# What was measured:
# Test in all cases: Kinase inhibitor library screening, PrestoBlue cell viability, 1 or 10 μM, 72 h
# [1] = system: 501Mel-XP cells (Vemurafenib-resistant); details: for viability at 1 µM / viability at 10 µM: Homo sapiens; for viability at 1 µM: read-out: cell viability, 501Mel XP, 1μΜ; for viability at 10 µM: read-out: cell viability, 501Mel XP, 10μΜ
# Protocol: (§1) After 72 h of treatment, cell viability was assessed using the PrestoBlue Cell Viability Reagent (ThermoFisher Scientific). Measurements were performed with the CLARIOstar Monochromator microplate reader (BMG Labtech).
# (§2) Kinase inhibitor library screening. […] Each cell line was treated in its sensitive form (parental), and also as 2 resistant derivatives, which were made resistant to either Vemurafenib (XP) or Dabrafenib (GP). Drugs were added at 2 different concentrations, 1 and 10 μM, for 72 h and cell viability was assessed using the PrestoBlue Cell Viability assay. Results are depicted as % viability compared to untreated cells. Each cell line was analyzed at least in duplicate. […] (XLSX 95 kb)
# [2] = system: A375-GP cells (Dabrafenib-resistant); details: for viability at 1 µM / viability at 10 µM: Homo sapiens, A-375, 72 h; for viability at 1 µM: read-out: cell viability, A375 GP, 1μΜ; for viability at 10 µM: read-out: cell viability, A375 GP, 10μΜ
# Protocol: as §1, §2
# [3] = system: 501Mel-GP cells (Dabrafenib-resistant); details: for viability at 1 µM / viability at 10 µM: Homo sapiens; for viability at 1 µM: read-out: cell viability, 501Mel GP, 1μΜ; for viability at 10 µM: read-out: cell viability, 501Mel GP, 10μΜ
# Protocol: as §1, §2
# 501Mel cells (parental) = details: for viability at 1 µM / viability at 10 µM: Homo sapiens; for viability at 1 µM: read-out: cell viability, 501Mel Parental, 1μΜ; for viability at 10 µM: read-out: cell viability, 501Mel Parental, 10μΜ
# Protocol: as §1, §2
# [4] = system: IGR37-XP cells (Vemurafenib-resistant); details: for viability at 1 µM / viability at 10 µM: Homo sapiens, IGR-37, 72 h; for viability at 1 µM: read-out: cell viability, IGR37 XP, 1μΜ; for viability at 10 µM: read-out: cell viability, IGR37 XP, 10μΜ
# Protocol: as §1, §2
# [5] = system: IGR37-GP cells (Dabrafenib-resistant); details: for viability at 1 µM / viability at 10 µM: Homo sapiens, IGR-37, 72 h; for viability at 1 µM: read-out: cell viability, IGR37 GP, 1μΜ; for viability at 10 µM: read-out: cell viability, IGR37 GP, 10μΜ
# Protocol: as §1, §2
# IGR37 cells (parental) = details: for viability at 1 µM / viability at 10 µM: Homo sapiens, IGR-37, 72 h; for viability at 1 µM: read-out: cell viability, IGR37 Parental, 1μΜ; for viability at 10 µM: read-out: cell viability, IGR37 Parental, 10μΜ
# Protocol: as §1, §2
# A375 cells (parental) = details: for viability at 1 µM / viability at 10 µM: Homo sapiens, A-375, 72 h; for viability at 1 µM: read-out: cell viability, A375 Parental, 1μΜ; for viability at 10 µM: read-out: cell viability, A375 Parental, 10μΜ
# Protocol: as §1, §2
# [6] = system: A375-XP cells (Vemurafenib-resistant); details: for viability at 1 µM / viability at 10 µM: Homo sapiens, A-375, 72 h; for viability at 1 µM: read-out: cell viability, A375 XP, 1μΜ; for viability at 10 µM: read-out: cell viability, A375 XP, 10μΜ
# Protocol: as §1, §2
smiles,measurement,setting,value
Oc1cccc(-c2nc(N3CCOCC3)c3oc4ncccc4c3n2)c1 [PI-103],viability at 1 µM,[1]; 72 h,13.4%
same,viability at 10 µM,[1]; 72 h,-0.0754%
same,viability at 1 µM,[2],55.6%
same,viability at 10 µM,[2],20.2%
same,viability at 1 µM,[3]; 72 h,20%
same,viability at 10 µM,[3]; 72 h,3.4%
same,viability at 1 µM,501Mel cells (parental); 72 h,36.3%
same,viability at 10 µM,501Mel cells (parental); 72 h,1.1%
same,viability at 1 µM,[4],80.5%
same,viability at 10 µM,[4],0.328%
same,viability at 1 µM,[5],87.6%
same,viability at 10 µM,[5],3.8%
same,viability at 1 µM,IGR37 cells (parental),76.3%
same,viability at 10 µM,IGR37 cells (parental),10.6%
same,viability at 1 µM,A375 cells (parental),61.4%
same,viability at 10 µM,A375 cells (parental),24.2%
same,viability at 1 µM,[6],49.4%
same,viability at 10 µM,[6],20.8%
Cn1c(=O)c(F)c(Nc2ccc(I)cc2F)c2c(=O)n(C[C@@H](O)CO)cnc21 [TAK-733],viability at 1 µM,[1]; 72 h,80.5%
same,viability at 10 µM,[1]; 72 h,58.7%
same,viability at 1 µM,[2],17.6%
same,viability at 10 µM,[2],16.5%
same,viability at 1 µM,[3]; 72 h,90.9%
same,viability at 10 µM,[3]; 72 h,72.7%
same,viability at 1 µM,501Mel cells (parental); 72 h,54%
same,viability at 10 µM,501Mel cells (parental); 72 h,57.9%
same,viability at 1 µM,[4],52.9%
same,viability at 10 µM,[4],22%
same,viability at 1 µM,[5],65.6%
same,viability at 10 µM,[5],58.6%
same,viability at 1 µM,IGR37 cells (parental),36.5%
same,viability at 10 µM,IGR37 cells (parental),44%
same,viability at 1 µM,A375 cells (parental),18.6%
same,viability at 10 µM,A375 cells (parental),18.6%
same,viability at 1 µM,[6],10.7%
same,viability at 10 µM,[6],2.7%
CCO.N#CC(=C(/N)Sc1ccccc1N)/C(C#N)=C(\N)Sc1ccccc1N [U0126-EtOH],"cell viability, 501Mel XP, 1μΜ","[1]; 501Mel XP, 1μΜ, 72 h, in %",86.9
same,"cell viability, 501Mel XP, 10μΜ","[1]; 501Mel XP, 10μΜ, 72 h, in %",62.2
same,"cell viability, A375 GP, 1μΜ","[2]; A375 GP, 1μΜ, 72 h, in %",93.9
same,"cell viability, A375 GP, 10μΜ","[2]; A375 GP, 10μΜ, 72 h, in %",64.5
same,"cell viability, 501Mel GP, 1μΜ","[3]; 501Mel GP, 1μΜ, 72 h, in %",105.2
same,"cell viability, 501Mel GP, 10μΜ","[3]; 501Mel GP, 10μΜ, 72 h, in %",75.1
same,"cell viability, 501Mel Parental, 1μΜ","501Mel cells (parental); 501Mel Parental, 1μΜ, 72 h, in %",94.5
same,"cell viability, 501Mel Parental, 10μΜ","501Mel cells (parental); 501Mel Parental, 10μΜ, 72 h, in %",65.9
same,"cell viability, IGR37 XP, 10μΜ","[4]; IGR37 XP, 10μΜ, 72 h",45.1%
same,"cell viability, IGR37 XP, 1μΜ","[4]; IGR37 XP, 1μΜ, 72 h, in %",92.3
same,"cell viability, IGR37 GP, 10μΜ","[5]; IGR37 GP, 10μΜ, 72 h",83.5%
same,"cell viability, IGR37 GP, 1μΜ","[5]; IGR37 GP, 1μΜ, 72 h, in %",93.8
same,"cell viability, IGR37 Parental, 10μΜ","IGR37 cells (parental); IGR37 Parental, 10μΜ, 72 h, in %",35.1
same,"cell viability, A375 Parental, 1μΜ","A375 cells (parental); A375 Parental, 1μΜ, 72 h, in %",100.1
same,"cell viability, A375 Parental, 10μΜ","A375 cells (parental); A375 Parental, 10μΜ, 72 h, in %",39.4
same,"cell viability, A375 XP, 1μΜ","[6]; A375 XP, 1μΜ, 72 h, in %",94.5
same,"cell viability, A375 XP, 10μΜ","[6]; A375 XP, 10μΜ, 72 h, in %",60.2
CN1CCN(CCOc2cc(OC3CCOCC3)c3c(Nc4c(Cl)ccc5c4OCO5)ncnc3c2)CC1 [Saracatinib (AZD0530)],cell viability (kinase inhibitor library screening),"[1]; 501Mel XP, 1μΜ, in %",95.7
same,cell viability (kinase inhibitor library screening),"[1]; 501Mel XP, 10μΜ, in %",79.4
same,cell viability (kinase inhibitor library screening),"[2]; A375 GP, 1μΜ, in %",81.5
same,cell viability (kinase inhibitor library screening),"[2]; A375 GP, 10μΜ, in %",56.9
same,cell viability (kinase inhibitor library screening),"[3]; 501Mel GP, 1μΜ, in %",100.5
same,cell viability (kinase inhibitor library screening),"[3]; 501Mel GP, 10μΜ, in %",90.5
same,cell viability (kinase inhibitor library screening),"501Mel cells (parental); 501Mel Parental, 1μΜ, in %",105.0
same,cell viability (kinase inhibitor library screening),"[4]; IGR37 XP, 1μΜ, in %",97.3
same,cell viability (kinase inhibitor library screening),"[4]; IGR37 XP, 10μΜ, in %",61.7
same,cell viability (kinase inhibitor library screening),"[5]; IGR37 GP, 1μΜ, in %",96.8
same,cell viability (kinase inhibitor library screening),"[5]; IGR37 GP, 10μΜ, in %",77.9
same,cell viability (kinase inhibitor library screening),"IGR37 cells (parental); IGR37 Parental, 10μΜ, in %",96.3
same,cell viability (kinase inhibitor library screening),"A375 cells (parental); A375 Parental, 1μΜ, in %",92.2
same,cell viability (kinase inhibitor library screening),"A375 cells (parental); A375 Parental, 10μΜ, in %",71.5
same,cell viability (kinase inhibitor library screening),"[6]; A375 XP, 1μΜ, in %",92.8
same,cell viability (kinase inhibitor library screening),"[6]; A375 XP, 10μΜ, in %",71.3
CC(=O)NCC(=O)N1[C@@H]2CC[C@H]1c1ccc(Nc3ncc(C(F)(F)F)c(NC4CCC4)n3)cc12 [PF-03814735],cell viability (kinase inhibitor library screening),"[1]; 501Mel XP, 1μΜ, 72 h",72.2%
same,cell viability (kinase inhibitor library screening),"[1]; 501Mel XP, 10μΜ, 72 h",3.8%
same,cell viability (kinase inhibitor library screening),"[2]; A375 GP, 1μΜ, 72 h",35.1%
same,cell viability (kinase inhibitor library screening),"[2]; A375 GP, 10μΜ, 72 h",3.7%
same,cell viability (kinase inhibitor library screening),"[3]; 501Mel GP, 1μΜ, 72 h",89.2%
same,cell viability (kinase inhibitor library screening),"[3]; 501Mel GP, 10μΜ, 72 h",8.3%
same,cell viability (kinase inhibitor library screening),"501Mel cells (parental); 501Mel Parental, 1μΜ, 72 h",82.8%
same,cell viability (kinase inhibitor library screening),"501Mel cells (parental); 501Mel Parental, 10μΜ, 72 h",24.0%
same,cell viability (kinase inhibitor library screening),"[4]; IGR37 XP, 1μΜ, 72 h",69.3%
same,cell viability (kinase inhibitor library screening),"[4]; IGR37 XP, 10μΜ, 72 h",2.0%
same,cell viability (kinase inhibitor library screening),"[5]; IGR37 GP, 1μΜ, 72 h",91.2%
same,cell viability (kinase inhibitor library screening),"[5]; IGR37 GP, 10μΜ, 72 h",10.4%
same,cell viability (kinase inhibitor library screening),"IGR37 cells (parental); IGR37 Parental, 1μΜ, 72 h",88.9%
same,cell viability (kinase inhibitor library screening),"IGR37 cells (parental); IGR37 Parental, 10μΜ, 72 h",37.6%
same,cell viability (kinase inhibitor library screening),"A375 cells (parental); A375 Parental, 10μΜ, 72 h",8.5%
same,cell viability (kinase inhibitor library screening),"A375 cells (parental); A375 Parental, 1μΜ, 72 h",32.3%
same,cell viability (kinase inhibitor library screening),"[6]; A375 XP, 1μΜ, 72 h",40.9%
same,cell viability (kinase inhibitor library screening),"[6]; A375 XP, 10μΜ, 72 h",12.4%
CNC(=O)c1nn(C)c2c1C(C)(C)Cc1cnc(Nc3ccc(N4CCN(C)CC4)cc3)nc1-2 [PHA-848125],cell viability (kinase inhibitor library screening),"[1]; 501Mel XP, 1μΜ, 72 h",75.1%
same,cell viability (kinase inhibitor library screening),"[1]; 501Mel XP, 10μΜ, 72 h",14.5%
same,cell viability (kinase inhibitor library screening),"[2]; A375 GP, 1μΜ, 72 h",57.9%
same,cell viability (kinase inhibitor library screening),"[2]; A375 GP, 10μΜ, 72 h",4.3%
same,cell viability (kinase inhibitor library screening),"[3]; 501Mel GP, 1μΜ, 72 h",63.8%
same,cell viability (kinase inhibitor library screening),"[3]; 501Mel GP, 10μΜ, 72 h",28.1%
same,cell viability (kinase inhibitor library screening),"501Mel cells (parental); 501Mel Parental, 1μΜ, 72 h",75.4%
same,cell viability (kinase inhibitor library screening),"501Mel cells (parental); 501Mel Parental, 10μΜ, 72 h",14.7%
same,cell viability (kinase inhibitor library screening),"[4]; IGR37 XP, 1μΜ, 72 h",75.2%
same,cell viability (kinase inhibitor library screening),"[4]; IGR37 XP, 10μΜ, 72 h",31.7%
same,cell viability (kinase inhibitor library screening),"[5]; IGR37 GP, 1μΜ, 72 h",78.8%
same,cell viability (kinase inhibitor library screening),"[5]; IGR37 GP, 10μΜ, 72 h",66.9%
same,cell viability (kinase inhibitor library screening),"IGR37 cells (parental); IGR37 Parental, 1μΜ, 72 h",95.1%
same,cell viability (kinase inhibitor library screening),"IGR37 cells (parental); IGR37 Parental, 10μΜ, 72 h",70.2%
same,cell viability (kinase inhibitor library screening),"A375 cells (parental); A375 Parental, 10μΜ, 72 h",5.7%
same,cell viability (kinase inhibitor library screening),"A375 cells (parental); A375 Parental, 1μΜ, 72 h",56.7%
same,cell viability (kinase inhibitor library screening),"[6]; A375 XP, 1μΜ, 72 h",66.4%
same,cell viability (kinase inhibitor library screening),"[6]; A375 XP, 10μΜ, 72 h",7.5%
